We go through 23 compounds from US8133909B2 (Hoffmann-La Roche Inc., priority 2008, dated 2012).

Structures can show the parent of a compound that is named as a salt.

In the assay the target is T1, human orexin-2 (hOX2) receptors (Homo sapiens, UniProt O43614).
T1 construct: expressed in transfected cells
T1 sequence (O43614 1-444): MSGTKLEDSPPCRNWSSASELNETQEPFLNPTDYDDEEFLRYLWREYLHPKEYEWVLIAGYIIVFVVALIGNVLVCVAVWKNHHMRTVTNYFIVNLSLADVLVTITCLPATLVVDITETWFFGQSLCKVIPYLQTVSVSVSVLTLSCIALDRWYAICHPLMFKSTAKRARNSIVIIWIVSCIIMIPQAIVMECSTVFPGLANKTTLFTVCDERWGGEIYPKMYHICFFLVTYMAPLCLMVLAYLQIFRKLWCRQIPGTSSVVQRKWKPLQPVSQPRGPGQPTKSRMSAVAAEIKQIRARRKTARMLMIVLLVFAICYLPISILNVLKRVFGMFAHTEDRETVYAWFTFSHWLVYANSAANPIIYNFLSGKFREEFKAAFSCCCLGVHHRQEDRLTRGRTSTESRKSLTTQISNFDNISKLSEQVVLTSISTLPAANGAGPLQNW
Description: Intracellular Ca2+ mobilization assay (FLIPR), antagonism of orexin-A. In kind it is cell-based. Particulars: CHO(dHFr-) cells stably expressing hOX2; orexin-A at EC80 as agonist; antagonist applied 25 min before; Kb=IC50/(1+[A]/EC50); read-out: Kb (μM) OX2R (human). Here is the method: Intracellular Ca^2+ Mobilization Assay
The Chinese Hamster Ovary (dHFr—) mutant cell line stably expressing human orexin-1 (hOX1) or human orexin-2 (hOX2) receptors were maintained in Dulbecco's Modified Eagle Medium (1X) with GlutaMax™ 1, 4500 mg/L D-Glucose and Sodium Pyruvate (Catalog No. 31966-021, Invitrogen, Carlsbad, Calif.), 5% dialyzed fetal calf serum (Catalog No. 26400-044), 100 μg/ml penicillin and 100 μg/ml streptomycin. The cells were seeded at 5×10^4 cells/well in the poly-D-lysine treated, 96-well, black/clear-bottomed plates (Catalog No. BD356640, BD Biosciences, Palo Alto, Calif.). 24 h later, the cells were loaded for 1 h at 37° C. with 4 μM Flou-4 acetoxymethyl ester (Catalog No. F-14202, Molecular Probes, Eugene, Oreg.) in FLIPR buffer (1×HBSS, 20 mM HEPES, 2.5 mM Probenecid). Hanks' Balanced Salt Solution (HBSS) (10×) (catalog No. 14065-049) and HEPES (1M) (catalog No. 15630-056) were purchased from Invitrogen, Carlsbad, Calif. Probenecid (250 mM) (catalog No. P8761) was from Sigma, Buchs, Switzerland. The cells were washed five times with FLIPR buffer to remove excess dye and intracellular calcium mobilization, [Ca^2+]i were measured using a Fluorometric Imaging Plate Reader (FLIPR-96, Molecular Devices, Menlo Park, Calif.) as described previously (Malherbe et al., Mol. Pharmacol., 64, 823-832, 2003). Orexin A (catalog No. 1455, Toris Cookson Ltd, Bristol, UK) was used as agonist. Orexin A (50 mM stock solution in DMSO) was diluted in FLIPR buffer +0.1% BSA. The EC50 and EC80 values of orexin-A were measured daily from standard agonist concentration-response curves in CHO(dHFr—)—OX1R and —OX2R cell lines. All compounds were dissolved in 100% DMSO. Inhibition curves were determined by addition of 11 concentrations (0.0001-10 μM) of inhibitory compounds and using EC80 value of orexin-A as agonist (a concentration which gave 80% of max agonist response, determined daily). The antagonists were applied 25 min (incubation at 37° C.) before the application of the agonist. Responses were measured as peak increase in fluorescence minus basal, normalized to the maximal stimulatory effect induced by EC80 value of orexin-A or orexin- B. Inhibition curves were fitted according to the Hill equation: y=100/(1+(x/IC50)^nH), where nH=slope factor using Excel-fit 4 software (Microsoft). Kb values were calculated according to the following equation Kb=IC50/(1+[A]/EC50) where A is the concentration of agonist added which is very close to agonist EC80 value, and IC50 and EC50 values were derived from the antagonist inhibition and orexin-A or B agonist curves, respectively.

For orientation: Kb means the equilibrium dissociation constant of an antagonist, usually derived from a functional assay. `Cc1csc(CCN(C(=O)[C@@H](N)c2ccccc2)c2ccc(C)c(C)c2)n1` [Example 67, (S)-2-Amino-N-(3,4-dimethyl-phenyl)-N-[2-(4-methyl-thiazol-2-yl)-ethyl]-2-phenyl-acetamide hydrochloride]: the Kb is 0.073 µM.

In the case of `Cc1ccc(N(CCc2ccc(C(F)(F)F)nc2)C(=O)C(C)(O)c2ccccc2)cc1C` (racemic) [Example 27, (R,S)—N-(3,4-Dimethyl-phenyl)-2-hydroxy-2-phenyl-N-[2-(6-trifluoromethyl-pyridin-3-yl)-ethyl]-propionamide], the Kb stood at 0.068 µM.

As for `Cc1ccc(N(CCc2ccc(Cl)cn2)C(=O)[C@@H](O)c2ccccc2)cc1C` [Example 66, (S)—N-[2-(5-Chloro-pyridin-2-yl)-ethyl]-N-(3,4-dimethyl-phenyl)-2-hydroxy-2-phenyl-acetamide], the Kb came out at 0.0057 µM.

With `Cc1n[nH]c2ccc(N(CCc3ccc(C(F)(F)F)nc3)C(=O)[C@@H](O)c3ccc(F)cc3)cc12` [Example 106, (S)-2-(4-Fluoro-phenyl)-2-hydroxy-N-(3-methyl-1H-indazol-5-yl)-N-[2-(6-trifluoromethyl-pyridin-3-yl)-ethyl]-acetamide], the antagonist dissociation constant (Kb) is 0.0249 µM.

As to `Cc1ccc(N(CCc2ccc(C(F)(F)F)nc2)C(=O)[C@@H](NC2COC2)c2ccccc2)cc1C` [Example 57, (S)—N-(3,4-Dimethyl-phenyl)-2-(oxetan-3-ylamino)-2-phenyl-N-[2-(6-trifluoromethyl-pyridin-3-yl)-ethyl]-acetamide], the Kb was found to be 0.0016 µM.

Regarding `Cc1ccc(N(CCc2ccc(C(F)(F)F)nc2)C(=O)[C@H](O)c2ccccc2)cc1C` [Example 3, (R)—N-(3,4-Dimethyl-phenyl)-2-hydroxy-2-phenyl-N-[2-(6-trifluoromethyl-pyridin-3-yl)-ethyl]-acetamide], the Kb was 0.0159 µM.

Turning to `COc1cccc(N(CCc2ccc(C(F)(F)F)nc2)C(=O)[C@@H](O)c2ccccc2)c1` [Example 56, (S)-2-Hydroxy-N-(3-methoxy-phenyl)-2-phenyl-N-[2-(6-trifluoromethyl-pyridin-3-yl)-ethyl]-acetamide], the Kb turned out to be 0.0176 µM.

As to `O=C([C@@H](O)c1ccccc1)N(CCc1ccc(C(F)(F)F)nc1)c1ccc2c(c1)[C@@H](O)CCO2` [Example 63, (S)-2-Hydroxy-N-((S)-4-hydroxy-chroman-6-yl)-2-phenyl-N-[2-(6-trifluoromethyl-pyridin-3-yl)-ethyl]-acetamide], the Kb was 0.0243 µM.

On to `Cc1ccc(N(CCc2ccc(C(F)(F)F)cn2)C(=O)[C@@H](N)c2ccccc2)cc1C` [Example 25, (S)-2-Amino-N-(3,4-dimethyl-phenyl)-2-phenyl-N-[2-(5-trifluoromethyl-pyridin-2-yl)-ethyl]-acetamide hydrochloride], for which the Kb stood at 0.0008 µM.

On to `Cc1cc(CCN(C(=O)[C@@H](O)c2ccccc2)c2ccc(C)c(C)c2)on1` [Example 70, (S)—N-(3,4-Dimethyl-phenyl)-2-hydroxy-N-[2-(3-methyl-isoxazol-5-yl)-ethyl]-2-phenyl-acetamide], for which the Kb was 0.0863 µM.

Take `O=C([C@@H](O)c1ccc(F)cc1)N(CCc1ccc(C(F)(F)F)nc1)c1ccc2c(c1)C(O)CCO2` (single isomer, unassigned) [Example 102, (S)-2-(4-Fluoro-phenyl)-2-hydroxy-N-((S or R)-4-hydroxy-chroman-6-yl)-N-[2-(6-trifluoromethyl-pyridin-3-yl)-ethyl]-acetamide]: the Kb was determined as 0.0116 µM.

On to `Cc1cc(N(CCc2ccc(C(F)(F)F)cc2)C(=O)C(O)c2ccccc2)n(C)n1` (racemic) [Example 42, (R,S)—N-(2,5-Dimethyl-2H-pyrazol-3-yl)-2-hydroxy-2-phenyl-N-[2-(4-trifluoromethyl-phenyl)-ethyl]-acetamide], for which the Kb was 0.0785 µM.

In the case of `Cc1ccc(CCN(C(=O)C(N)c2ccc(Cl)cc2)c2sc(C)nc2C)cc1` (racemic) [Example 32, (R,S)-2-Amino-2-(4-chloro-phenyl)-N-(2,4-dimethyl-thiazol-5-yl)-N-(2-p-tolyl-ethyl)-acetamide], the antagonist dissociation constant (Kb) worked out at 0.0943 µM.

On to `O=C([C@H](O)c1ccc(F)cc1)N(CCc1ccc(C(F)(F)F)cn1)c1ccc2c(c1)CCC2` (racemic) [Example 73, (R,S)-2-(4-Fluoro-phenyl)-2-hydroxy-N-indan-5-yl-N-[2-(5-trifluoromethyl-pyridin-2-yl)-ethyl]-acetamide], for which the Kb turned out to be 0.0313 µM.

As for `Cc1ccc(N(CCc2ccc(C(F)(F)F)nc2)C(=O)Cc2ccccc2)cc1C` [Example 17, N-(3,4-Dimethyl-phenyl)-2-phenyl-N-[2-(6-trifluoromethyl-pyridin-3-yl)-ethyl]-acetamide], the Kb stood at 0.0362 µM.

As to `O=C(C(O)c1ccc(F)cc1)N(CCc1ccc(C(F)(F)F)cn1)c1ccc(Cl)c(CO)c1` (racemic) [Example 98, (R,S)—N-(4-Chloro-3-hydroxymethyl-phenyl)-2-(4-fluoro-phenyl)-2-hydroxy-N-[2-(5-trifluoromethyl-pyridin-2-yl)-ethyl]-acetamide], the Kb turned out to be 0.0216 µM.

With `O=C(C(O)c1ccc(F)cc1)N(CCc1ccc(C(F)(F)F)cn1)c1ccc2c(c1)CCO2` (racemic) [Example 75, (R,S)—N-(2,3-Dihydro-benzofuran-5-yl)-2-(4-fluoro-phenyl)-2-hydroxy-N-[2-(5-trifluoromethyl-pyridin-2-yl)-ethyl]-acetamide], the Kb amounted to 0.013 µM.

Take `CCc1cc(N(CCc2ccc(C(F)(F)F)cn2)C(=O)C(O)c2ccc(F)cc2)ccc1Cl` (racemic) [Example 97, (R,S)-N-(4-Chloro-3-ethyl-phenyl)-2-(4-fluoro-phenyl)-2-hydroxy-N-[2-(5-trifluoromethyl-pyridin-2-yl)-ethyl]-acetamide]: the Kb worked out at 0.0276 µM.

Turning to `Cc1ccc(N(CCc2ccc(F)cn2)C(=O)[C@@H](O)c2ccccc2)cc1C` [Example 68, (S)—N-(3,4-Dimethyl-phenyl)-N-[2-(5-fluoro-pyridin-2-yl)-ethyl]-2-hydroxy-2-phenyl-acetamide], the Kb is 0.0232 µM.

Take `COc1ccc(N(CCc2ccc(C(F)(F)F)nc2)C(=O)[C@@H](NC(=O)[C@@H](N)c2ccccc2)c2ccccc2)cc1OC` [Example 4, (S)-2-((S)-2-Amino-2-phenyl-acetylamino)-N-(3,4-dimethoxy-phenyl)-2-phenyl-N-[2(6-trifluoromethyl-pyridin-3-yl)-ethyl]-acetamide]: the antagonist equilibrium constant (Kb) was found to be 0.0017 µM.

`O=C([C@@H](O)c1ccccc1)N(CCc1ccc(C(F)(F)F)nc1)c1ccc2c(c1)CCCO2` [Example 62]: the Kb amounted to 0.011 µM.

Turning to `O=C(C(O)c1ccc(F)cc1)N(CCc1ccc(C(F)(F)F)cn1)c1ccc(Cl)c(OC2CC2)c1` (racemic) [Example 103, (R,S)—N-(4-Chloro-3-cyclopropoxy-phenyl)-2-(4-fluoro-phenyl)-2-hydroxy-N-[2-(5-trifluoromethyl-pyridin-2-yl)-ethyl]-acetamide], the Kb was determined as 0.0239 µM.

As for `COc1cc(N(CCc2ccc(C(F)(F)F)cn2)C(=O)[C@@H](O)c2ccc(F)cc2)ccc1F` [Example 92, (S)—N-(4-Fluoro-3-methoxy-phenyl)-2-(4-fluoro-phenyl)-2-hydroxy-N-[2-(5-trifluoromethyl-pyridin-2-yl)-ethyl]-acetamide], the Kb was found to be 0.0146 µM.
